The text below walks through data of US20150025120A1, “PYRAZOLE-ALCOHOL COMPOUNDS AND PHARMACEUTICAL USE THEREOF” (JAPAN TOBACCO INC., priority 2013, published 2015).

For this series, the target named is T1, hERG current (hERG-transfected HEK293 cells) (Homo sapiens, UniProt Q12809).
T1 construct: host or cells: HEK293
Nature of the series: hERG whole cell patch clamp test. Type of series: cell-based. To be noted: for IC50: whole cell patch clamp, hERG-transfected HEK293 cells. As for the experimental part:
Using human ether-a-go-go related gene (hERG)-transfected HEK293 cells (Cytomyx Limited), an influence on hERG current was examined according to the whole cell patch clamp technique. The hERG-transfected HEK293 cells were passaged using a CO2 incubator (BNA-111, TABAI ESPEC CORP.) under the set conditions of 37° C., 5% CO2, saturated humidity. Culture containers used were Collagen Type I Coated 75 cm^2 flask (4123-010, AGC TECHNO GLASS CO., Ltd.) and Collagen Type I Coated 35 mm culture dish (4000-010, AGC TECHNO GLASS CO., Ltd.). The culture medium used was E-MEM (Eagle Minimum Essential Medium (Earle's Salts, Nikken biomedical laboratory) added with 10% FCS (Fetal calf serum, BioWest, L.L.C.) and 1% MEM Non-Essential Amino Acids Solution (NEAA, Invitrogen Corporation). Geneticin for the selection of hERG gene expressing cells was added thereto to a concentration of 400 μg/mL. As the cells for the measurement, 3×10^4 hERG-transfected HEK293 cells were plated on a 35 mm culture dish 4 to 7 days before measurement of the hERG current. The culture dish produced for the measurement contained the above-mentioned culture medium without geneticin (Invitrogen Corporation).
The highest evaluation concentration of each compound was determined from the highest concentration at which precipitation was not found in the standard extracellular fluid (NaCl: 140 mmol/L, KCl: 2.5 mmol/L, MgCl2: 2 mmol/L, CaCl2: 2 mmol/L, HEPES: 10 mmol/L, glucose: 10 mmol/L (adjusted to pH 7.4 with Tris-base)). As the application method, each solution to be applied was ejected from a Y-tube having a tip diameter of about 0.25 mm, which was adjacent (about 2 mm) to the cells, and applied to the cells. The ejection rate was about 0.4 mL/min.
The experiment was performed at room temperature under a phase contrast microscope. The 35 mm culture dish plated with the cells was set on a measurement apparatus, and the standard extracellular fluid was continuously applied to the cells from the Y-tube. A glass electrode for the measurement was filled with an intracellular fluid (Potassium Gluconate: 130 mmol/L, KCl: 20 mmol/L, MgCl2: 1 mmol/L, ATP-Mg: 5 mmol/L, EGTA: 3.5 mmol/L, HEPES: 10 mmol/L (adjusted to pH 7.2 with Tris-base)). A conventional whole cell patch clamp method was applied to the cells, and the maintenance electric potential was set to −80 mV. Under a fixed electric potential, the whole cell current was amplified by an amplifier for patch clamp (AXOPATCH-200B, Axon Instruments, Inc.), and the data was loaded into a computer (IMC-P642400, Intermedical Co., Ltd.) using a data acquisition analysis software (pCLAMP 9.2, Axon Instruments, Inc.).
The measurement of the hERG current was performed in the following two steps. In both cases, the hERG current was initiated by giving a command potential (maintenance electric potential −80 mV, prepulse+20 mV, 1.5 sec, test-pulse −50 mV, 1.5 sec).
Step (1): The above-mentioned command potential was given at 0.1 Hz for 2 min.
Step (2): The above-mentioned command potential was subjected to P/3 subtraction of pCLAMP 9.2 to remove leak current. This was repeated three times and an average thereof was taken as hERG current.
Subsequent to step (1), Step (2) was performed (about 3 min), and the maximum tail current obtained by applying a test-pulse to the hERG current obtained by the method of step (2) was taken as hERG current value. Hereafter, the operations of (1) and (2) were alternately repeated until completion of the experiment and the hERG current value was measured.
Stable hERG current value was recorded three times (about 10 min), and the standard extracellular fluid was instantaneously exchanged with each application fluid. The hERG current value was measured three times (about 10 min) in the same manner during perfusion of the application fluid, and the current value obtained by the 3rd measurement was taken as hERG current value after perfusion of the application fluid. […]

T1 sequence (Q12809 whole entry): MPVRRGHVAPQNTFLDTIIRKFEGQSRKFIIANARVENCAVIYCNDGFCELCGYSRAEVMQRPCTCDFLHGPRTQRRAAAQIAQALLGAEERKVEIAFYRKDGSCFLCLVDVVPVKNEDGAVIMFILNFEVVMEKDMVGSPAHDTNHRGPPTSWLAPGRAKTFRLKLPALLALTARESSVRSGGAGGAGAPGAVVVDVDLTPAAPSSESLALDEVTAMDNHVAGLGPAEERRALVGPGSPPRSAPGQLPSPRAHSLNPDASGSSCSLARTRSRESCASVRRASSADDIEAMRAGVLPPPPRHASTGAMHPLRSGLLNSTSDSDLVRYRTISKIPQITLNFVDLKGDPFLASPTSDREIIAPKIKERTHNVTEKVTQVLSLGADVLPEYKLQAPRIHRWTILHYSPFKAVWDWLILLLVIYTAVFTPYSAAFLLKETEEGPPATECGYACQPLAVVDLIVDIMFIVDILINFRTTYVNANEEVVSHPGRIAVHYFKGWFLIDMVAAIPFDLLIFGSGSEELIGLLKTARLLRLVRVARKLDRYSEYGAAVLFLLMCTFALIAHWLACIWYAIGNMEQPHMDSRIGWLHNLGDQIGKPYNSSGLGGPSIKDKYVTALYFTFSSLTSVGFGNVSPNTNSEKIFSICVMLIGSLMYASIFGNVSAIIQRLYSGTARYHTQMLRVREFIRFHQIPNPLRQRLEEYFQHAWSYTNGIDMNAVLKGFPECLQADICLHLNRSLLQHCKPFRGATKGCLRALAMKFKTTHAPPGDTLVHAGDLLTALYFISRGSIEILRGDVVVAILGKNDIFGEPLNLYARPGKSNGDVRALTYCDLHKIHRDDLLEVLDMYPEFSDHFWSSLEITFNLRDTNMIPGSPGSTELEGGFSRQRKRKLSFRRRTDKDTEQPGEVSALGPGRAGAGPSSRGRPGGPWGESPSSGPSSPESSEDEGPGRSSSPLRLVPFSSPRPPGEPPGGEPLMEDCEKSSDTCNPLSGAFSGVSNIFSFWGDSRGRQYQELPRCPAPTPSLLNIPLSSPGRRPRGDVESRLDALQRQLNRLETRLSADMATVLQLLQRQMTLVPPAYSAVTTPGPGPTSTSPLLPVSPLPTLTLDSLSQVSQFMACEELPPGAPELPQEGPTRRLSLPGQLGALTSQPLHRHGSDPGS

In the case of `Cn1cc(-c2cc(OCC(C)(C)O)cc3c2-c2ccccc2[C@]3(O)C(F)(F)F)cn1` [compound (B), (9R)-2-(2-Hydroxy-2-methylpropoxy)-4-(1-methyl-1H-pyrazol-4-yl)-9-(trifluoromethyl)-9H-fluoren-9-ol, reference compound], the “hERG inhibition rate (%)” value (concentration 1 μmol/L) is recorded as 17.4% and the “hERG inhibition rate (%)” value (concentration 10 μmol/L) was determined as 72.9%.
One may read the IC50 as the point on the concentration scale where inhibition reaches its midpoint. A high value points to weaker potency. For the compound `CC(C)(O)CCCOc1cc(-c2cnn(CC(C)(C)O)c2)c2c(c1)[C@@](O)(C(F)(F)F)c1ccccc1-2` [compound (4), (9R)-2-(4-hydroxy-4-methylpentyloxy)-4-[1-(2-hydroxy-2-methylpropyl)-1H-pyrazol-4-yl]-9-(trifluoromethyl)-9H-fluoren-9-ol], the IC50 was > 30 µM. For the same compound, the “hERG inhibition rate (%)” value (concentration 10 μmol/L) is listed as 18.6%. In addition, the “hERG inhibition rate (%)” value (concentration 30 μmol/L) stood at 44.0%.
Consider `NC(=O)Cn1cc(-c2cc(OCCC34CC5CC(CC(O)(C5)C3)C4)cc3c2-c2ccccc2[C@]3(O)C(F)(F)F)cn1` [compound (A), 2-(4-{(9R)-9-Hydroxy-2-[2-(3-hydroxyadamantan-1-yl)ethoxy]-9-(trifluoromethyl)-9H-fluoren-4-yl}-1H-pyrazol-1-yl)acetamide, reference compound], for which the “hERG inhibition rate (%)” value (concentration 10 μmol/L) turned out to be 11.8%.
On to `C[C@H](O)COc1cc(-c2cnn(CC(C)(C)O)c2)c2c(c1)[C@@](O)(C(F)(F)F)c1ccccc1-2` [compound (1), (9R)-4-[1-(2-hydroxy-2-methylpropyl)-1H-pyrazol-4-yl]-2-((2S)-2-hydroxypropoxy)-9-(trifluoromethyl)-9H-fluoren-9-ol], for which half-maximal inhibition (IC50) required 54.4 µM. Moreover, for the setting “concentration 10 μmol/L”, the “hERG inhibition rate (%)” value came to 16.2%. Besides, the “hERG inhibition rate (%)” value (concentration 100 μmol/L) is given as 62.3%.
Take `CC(C)(O)COc1cc(-c2cnn(CC(C)(C)O)c2)c2c(c1)[C@@](O)(C(F)(F)F)c1ccccc1-2` [compound (2), (9R)-2-(2-hydroxy-2-methylpropoxy)-4-[1-(2-hydroxy-2-methylpropyl)-1H-pyrazol-4-yl]-9-(trifluoromethyl)-9H-fluoren-9-ol]: half-maximal inhibition (IC50) was put at 47.6 µM. Where the note is “concentration 10 μmol/L”, the “hERG inhibition rate (%)” value is on record as 13.2%. Where the note is “concentration 100 μmol/L”, the “hERG inhibition rate (%)” value is reported as 67.6%.
